According to patent US20240100176A1, “HUMAN INTERLEUKIN-4 RECEPTOR ALPHA ANTIBODY GLUCOCORTICOID CONJUGATES” (Eli Lilly and Company, priority 2022, published 2024):

Tests used:
Assay type in all cases: cell-based
[1] = tested on: anti-CD40 induced proliferation of human primary B cells; assay: Glucocorticoid receptor mediated inhibition of anti-CD40 induced B cell proliferation
Procedure: Human PBMCs were isolated from human blood samples by standard Ficoll-Paque™ plus (GE […]) density gradient centrifugation methods, and primary B cells were isolated from the PBMC suspension by negative selection with EasySep™ Human Naïve B cell Enrichment kit according to the manufacturer's protocol ([…]™ Technologies). […] Cells were then pulsed with [^3H]-thymidine ([…] thymidine/well; PerkinElmer®) for 18 hours at 37° C. and level of [^3H]-thymidine incorporation was measured by a Microplate Counter (MicroBeta 2; PerkinElmer®) and expressed as a […] (CCPM). Statistical analysis was performed using GraphPad Prism 9 and curves were generated by fitting a sigmoidal curve of the log(Ab concentration) vs. the mean percent inhibition of CCPM compared to no stimulation from 2 donors.

[2] = tested on: IL-4 induced proliferation of human primary B cells; assay: Inhibition of IL-4 induced B cell proliferation
Procedure: Human PBMCs were isolated from human blood samples by standard Ficoll-Paque™ plus (GE […]) density gradient centrifugation methods, and primary B cells were isolated from the PBMC suspension by negative selection with EasySep™ Human Naïve B cell Enrichment kit according to the manufacturer's protocol ([…]™ Technologies). […] Cells were stimulated with Human CD40/TNFRSF5 Antibody (200 ng/mL; R&D SYSTEMS) and with IL-4 recombinant human protein (5 ng/mL; R&D SYSTEMS) for 2 days at 37° C. and 5% CO2. Cells were then pulsed with [^3H]-thymidine ([…] thymidine/well; PerkinElmer®) for 18 hours at 37° C. and level of [^3H]-thymidine incorporation was measured by a Microplate Counter (MicroBeta 2; PerkinElmer®) and expressed as a […] (CCPM). Statistical analysis was performed using GraphPad Prism 9 and curves were generated by fitting a sigmoidal curve of the log (Ab concentration) vs. the mean percent inhibition of CCPM compared to CD40 stimulation alone from two donors.

[3] = tested on: GM-CSF secretion from Human PBMCs; assay: Inhibition of cytokine secretion from human PBMCs; conditions: PBMC; PHA-M/PMA stimulated human PBMCs, 48 hours; 100 nM
Procedure: (§1) Example 4h. Inhibition of Cytokine secretion from Human PBMCs: PBMCs were isolated from Ficoll-layered blood centrifuged at 400×g for 30 minutes at room temperature. The PBMC layer was washed with sterile RPMI-1640 media (Corning® Cat. #10041CV) and centrifuged at 1500 rpm for 5 min, at 4° C. Red blood cells are lysed by resuspending the cell pellet in 5 mL of ACK Lysing Buffer (GIBCO Cat. #A1049201) and incubating at room temperature for 5 minutes. […] The plates are incubated at 37° C. with 5% CO2 for 48 hours. After the incubation period, plates are centrifuged at 2000 rpm for 1 min and the top 100 μL of the supernatants are removed and stored at −80° C., until ready to perform cytokine detection. Cytokine release is detected using the U-PLEX Custom Biomarker [Human] Multiplex Assay (MESO SCALE DISCOVERY), according to the manufacturer's protocol. Statistical analysis is performed using GraphPad Prism 9. Data was presented as sigmoidal curve fits of the mean of the individual donors' percent inhibition for each cytokine (n=2) vs. the log(Ab concentration) and statistical analysis is performed using GraphPad Prism 9.

[4] = tested on: MDC secretion from Human PBMCs; assay: Inhibition of cytokine secretion from human PBMCs; conditions: PBMC; PHA-M/PMA stimulated human PBMCs, 48 hours; 100 nM
Procedure: as §1

[5] = tested on: IL-5 secretion from Human PBMCs; assay: Inhibition of cytokine secretion from human PBMCs; conditions: PBMC; PHA-M/PMA stimulated human PBMCs, 48 hours; 100 nM
Procedure: as §1

With `Cc1ccc(OCc2cccc(N)c2)c(F)c1[C@H]1O[C@@H]2C[C@H]3[C@@H]4CCC5=CC(=O)C=C[C@]5(C)[C@H]4[C@@H](O)C[C@]3(C)[C@]2(C(=O)CO)O1` (single isomer, unassigned) [GC1] the IC50 ([1]; anti-CD40 (200 ng/mL) induced, no IL-4) was 3.73 nM, the inhibition at 0.1 µM ([1]; read-out: Inhibition of B cell proliferation at 100 nM % inhibition, anti-CD40 induced, 100 nM) was 66.5% and the inhibition at 0.06667 µM ([2]; Homo sapiens, B-cell, IL-4 induced, 66.67 nM) was 25.7%. For the same compound, the “Inhibition of IL-4 induced B cell proliferation (in words)” value ([2]; compared to the isotype control) was “no significant inhibition was observed”, the inhibition at 0.1 µM [3] was 90.8% and the inhibition at 0.1 µM [4] was 96.1%. For the same compound, the inhibition at 0.1 µM [5] was 97.4%.
